Like-named read-outs stand apart in the source and are kept apart here.
Columns and labels:
Type in all cases: in vivo
[1] = system: Alopecurus myosuroides (ALOMY); assay: Post-emergence herbicidal action against ALOMY; conditions: 80 g/ha, visual rating about 3 weeks after treatment vs untreated controls (100% = plants have died, 0% = like control plants)
Procedure, shortened: (§1)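 Doses of 320 g/ha or lower, suffixes a, b and c marking different dosages, were applied post-emergence at the one-leaf stage in 600 l/ha water with 0.5% additive. Damage was assessed visually after about 3 weeks in the greenhouse.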

[2] = system: Brassica napus (BRSNW); conditions: crop plant compatibility, in comparison to untreated controls
Procedure, shortened: (§2)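 Scoring: visual, % of untreated control, about 3 weeks after a pre-emergence application to the soil surface. Application used WP or EC formulations diluted in water with 0.5% additive at 600 l/ha; dosage levels are marked by suffixes a, b and c.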

[3] = system: Zea mays (ZEAMX); conditions: pre-emergence, crop plant compatibility, in comparison to untreated controls
Procedure, shortened: as §2

[4] = system: Oryza sativa (ORYSA); conditions: pre-emergence, crop plant compatibility, in comparison to untreated controls
Procedure, shortened: as §2

[5] = system: Triticum aestivum (TRZAS); conditions: crop plant compatibility, effect vs untreated controls
Procedure, shortened: (§3)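 Effects were read visually as % versus untreated controls (0% = no effect, 100% = death) about 3 weeks post-treatment. Application was a post-emergence spray at the one-leaf stage of WP/EC formulations with 0.5% additive at 600 l/ha. Different dosages are denoted a, b and c.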

[6] = system: Zea mays (ZEAMX); conditions: for Post-emergence action against ZEAMX in % (crop plant compatibility): 20 g/ha, effect in comparison to untreated controls; for Post-emergence action against ZEAMX in %: crop plant compatibility, effect vs untreated controls
Procedure, shortened: as §3

[7] = system: Oryza sativa (ORYSA); conditions: crop plant compatibility
Procedure, shortened: as §3

[8] = system: Brassica napus (BRSNW); assay: Post-emergence crop plant compatibility, BRSNW; conditions: effect in comparison to untreated controls
Description: Seeds of monocotyledonous and dicotyledonous weeds and crop plants are placed in sandy loam in plastic or organic planting pots, covered with soil and cultivated in a greenhouse under controlled growth conditions. 2 to 3 weeks after sowing, the test plants are treated at the one-leaf stage. The compounds of the invention, formulated in the form of wettable powders (WP) or as emulsion concentrates (EC), are then sprayed onto the green parts of the plants as aqueous suspension or emulsion with addition of 0.5% additive at a water application rate of 600 l/ha (converted). After the test plants have been kept in the greenhouse under optimum growth conditions for about 3 weeks, the activity of the preparations is rated visually in comparison to untreated controls. For example, 100% activity=the plants have died, 0% activity=like control plants.
The observed effects on selected crop plants are reported here in comparison to the untreated controls (values in %). The appendices “a”, “b” and “c” give differentiation by dosage used with otherwise the same crop plants tested.

[9] = system: Verconica persica (VERPE); assay: Pre-emergence herbicidal action against VERPE
Procedure, shortened: (§4)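 Greenhouse pot trial: seeds sown, soil-covered, sprayed before emergence with compound in water (0.5% additive; 600 l/ha; ≤320 g/ha). Scoring visual, ~3 weeks, 0–100% scale vs untreated.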

[10] = system: Glycine max (GLXMA); conditions: pre-emergence, crop plant compatibility, in comparison to untreated controls
Procedure, shortened: as §2

[11] = system: Triticum aestivum (TRZAS); conditions: pre-emergence, crop plant compatibility, in comparison to untreated controls
Procedure, shortened: as §2

[12] = system: Glycine max (GLXMA); assay: Post-emergence crop plant compatibility, GLXMA; conditions: post-emergence, effect in comparison to untreated controls
Procedure, shortened: as §3

[13] = system: Viola tricolor (VIOTR); assay: Post-emergence herbicidal action against VIOTR; conditions: 320 g/ha
Procedure, shortened: as §1

[14] = system: Digitaria sanguinalis (DIGSA); assay: Pre-emergence herbicidal action against DIGSA
Procedure, shortened: as §4

[15] = system: Polygonum convolvulus (POLCO); assay: Pre-emergence herbicidal action against POLCO; conditions: dosage 320 g/ha
Procedure, shortened: as §4

[16] = system: Viola tricolor (VIOTR); assay: Pre-emergence herbicidal action against VIOTR; conditions: 320 g/ha, Viola tricolor
Procedure, shortened: as §4

[17] = system: Setaria viridis (SETVI); assay: Pre-emergence herbicidal action against SETVI; conditions: dosage 320 g/ha
Procedure, shortened: as §4

[18] = system: Amaranthus retroflexus (AMARE); assay: Post-emergence herbicidal action against AMARE; conditions: 80 g/ha, visual rating about 3 weeks after treatment vs untreated controls (100% = plants have died, 0% = like control plants)
Procedure, shortened: as §1

[19] = system: Amaranthus retroflexus (AMARE); assay: Pre-emergence herbicidal action against AMARE; conditions: 320 g/ha, visual scoring after about 3 weeks vs untreated controls
Procedure, shortened: as §4

[20] = system: Alopecurus myosuroides (ALOMY); assay: Pre-emergence herbicidal action against ALOMY; conditions: 320 g/ha; scored visually after about 3 weeks; 100% = plants have died
Procedure, shortened: as §4

[21] = system: Lolium rigidum (LOLRI); assay: Pre-emergence herbicidal action against LOLRI; conditions: dosage 320 g/ha
Procedure, shortened: as §4

[22] = system: Setaria viridis (SETVI); assay: Post-emergence herbicidal action against SETVI; conditions: dosage 320 g/ha
Procedure, shortened: as §1

[23] = system: Echinochloa crus-galli (ECHCG); assay: Post-emergence herbicidal action against ECHCG; conditions: dosage 320 g/ha
Procedure, shortened: as §1

[24] = system: Verconica persica (VERPE); assay: Post-emergence herbicidal action against VERPE; conditions: 320 g/ha, VERPE
Procedure, shortened: as §1

[25] = 20 g/ha, effect vs untreated controls
[26] = 80 g/ha, effect in comparison to untreated controls
[27] = 320 g/ha, effect in comparison to untreated controls

Row | Compound | Pre-emergence action against BRSNW in % ([2]; 80 g/ha) | Pre-emergence action against ZEAMX in % ([3]; 80 g/ha) | Pre-emergence action against ORYSA in % ([4]; 80 g/ha) | Post-emergence action against TRZAS in % ([5]; 20 g/ha) | Post-emergence action against ZEAMX in % (crop plant compatibility) [6] | Post-emergence action against ZEAMX in % ([6]; 80 g/ha) | Post-emergence action against ORYSA in % [7, 25] | Post-emergence action against ORYSA in % [7, 26] | Post-emergence action against BRSNW in % ([8]; 20 g/ha) | Post-emergence action against BRSNW in % ([8]; 80 g/ha) | Pre-emergence action against GLXMA in % ([10]; 80 g/ha) | Pre-emergence action against TRZAS in % ([11]; 80 g/ha) | Pre-emergence action against TRZAS in % ([11]; 320 g/ha) | Pre-emergence action against ZEAMX in % ([3]; 320 g/ha) | Pre-emergence action against ORYSA in % ([4]; 320 g/ha) | Post-emergence action against TRZAS in % ([5]; 80 g/ha) | Post-emergence action against ORYSA in % [7, 27] | also measured
1 | C[C@@H](Oc1nn(-c2ncccc2F)c(-c2ccc(F)nc2)c1Br)C(=O)O [Example I-50] | 0% | 0% | – | 10% | 0% | 0% | 10% | 10% | 10% | 20% | – | 10% | 10% | 0% | – | 10% | – | Pre-emergence action against BRSNW in % ([2]; 320 g/ha): 20%; Post-emergence action against GLXMA in % ([12]; 20 g/ha): 0%; Post-emergence action against GLXMA in % ([12]; 80 g/ha): 10%
2 | COC(=O)CNC(=O)COc1nn(-c2ccccn2)c(-c2ccc(F)nc2)c1C1CC1 [Example I-70] | 20% | 0% | 0% | 0% | 0% | 10% | 0% | 0% | 20% | – | 10% | 10% | – | 0% | 10% | 10% | – | Pre-emergence action against SETVI in % [17]: 90%; Post-emergence action against AMARE in % [18]: 90%; Pre-emergence action against AMARE in % [19]: 90%; Pre-emergence action against VERPE in % ([9]; dosage 320 g/ha): 80%; Pre-emergence action against ALOMY [20]: 90%; Pre-emergence action against VIOTR in % [16]: 90%; Pre-emergence action against LOLRI in % [21]: 90%
3 | COC(=O)CNC(=O)COc1nn(-c2cccnc2C)c(-c2cncc(F)c2)c1Br [II-37] | – | – | – | 0% | 0% | 0% | 0% | 0% | 0% | – | – | – | – | – | – | 0% | 0% | Post-emergence action against SETVI in % [22]: 80%; Post-emergence action against VIOTR in % [13]: 80%; Post-emergence action against TRZAS in % ([5]; 320 g/ha): 0%; Post-emergence action against ZEAMX in % ([6]; 320 g/ha): 0%; Post-emergence action against ECHCG in % [23]: 80%; Post-emergence action against VERPE in % [24]: 90%; Post-emergence action against GLXMA in % ([12]; 20 g/ha): 0%
4 | O=C(O)C1CCN(C(=O)COc2nn(-c3ccccn3)c(-c3ccc(F)nc3)c2Br)CC1 [Example I-62] | 0% | 0% | 0% | – | – | – | – | 0% | – | 20% | – | 0% | 0% | – | 0% | 0% | 0% | Post-emergence action against TRZAS in % ([5]; 320 g/ha): 0%; Post-emergence action against ZEAMX in % ([6]; 320 g/ha): 20%

Now from value to compound, other results behind:

Row | Pre-emergence action against BRSNW in % ([2]; 80 g/ha) | Pre-emergence action against ZEAMX in % ([3]; 80 g/ha) | Pre-emergence action against ORYSA in % ([4]; 80 g/ha) | Post-emergence action against TRZAS in % ([5]; 20 g/ha) | Post-emergence action against ZEAMX in % (crop plant compatibility) [6] | Post-emergence action against ZEAMX in % ([6]; 80 g/ha) | Post-emergence action against ORYSA in % [7, 25] | Post-emergence action against ORYSA in % [7, 26] | Post-emergence action against BRSNW in % ([8]; 20 g/ha) | Post-emergence action against BRSNW in % ([8]; 80 g/ha) | Pre-emergence action against GLXMA in % ([10]; 80 g/ha) | Pre-emergence action against TRZAS in % ([11]; 80 g/ha) | Pre-emergence action against TRZAS in % ([11]; 320 g/ha) | Pre-emergence action against ZEAMX in % ([3]; 320 g/ha) | Pre-emergence action against ORYSA in % ([4]; 320 g/ha) | Post-emergence action against TRZAS in % ([5]; 80 g/ha) | Post-emergence action against ORYSA in % [7, 27] | Compound | also measured
5 | 20% | 10% | 10% | 0% | 10% | 10% | 0% | 10% | 10% | 20% | – | – | – | – | – | – | – | COC(=O)C1CCCN1C(=O)COc1nn(-c2ccccn2)c(-c2ccc(F)nc2)c1Br (stereo not drawn) [Example I-110] | Post-emergence action against ALOMY in % [1]: 80%; Pre-emergence action against VERPE in % ([9]; dosage 80 g/ha): 100%
6 | 10% | 10% | 10% | 0% | 10% | 10% | 0% | 0% | 0% | 10% | 20% | 0% | 10% | 10% | 10% | 10% | – | COC(=O)C1CCN(C(=O)COc2nn(-c3ccccn3)c(-c3ccc(F)nc3)c2Br)C1 (stereo not drawn) [Example I-109] | Pre-emergence action against BRSNW in % ([2]; 320 g/ha): 10%; Pre-emergence action against GLXMA in % ([10]; 320 g/ha): 20%
7 | – | 10% | – | – | – | – | – | 0% | – | 20% | 0% | 10% | – | 20% | – | – | 10% | CCOC(=O)C(Oc1nn(-c2ccccn2)c(-c2ccc(F)nc2)c1Br)C(C)C (stereo not drawn) [Example I-349] | Pre-emergence action against GLXMA in % ([10]; 320 g/ha): 10%; Post-emergence action against VIOTR in % [13]: 80%; Pre-emergence action against DIGSA in % ([14]; 80 g/ha, visual scoring after about 3 weeks vs untreated controls): 80%; Pre-emergence action against DIGSA in % ([14]; dosage 320 g/ha): 90%; Post-emergence action against GLXMA in % ([12]; 80 g/ha): 0%; Pre-emergence action against POLCO in % [15]: 80%; Pre-emergence action against VIOTR in % [16]: 80%

Source: patent US20240041042A1, “1-(PYRIDYL)-5-AZINYLPYRAZOLE DERIVATIVES, AND THEIR USE FOR CONTROL OF UNDESIRED PLANT GROWTH” (Bayer Aktiengesellschaft, priority 2020, published 2024)
